Experimental data reported in the CheMixHub viscosity set.
Several values for one entry are separate records, joined by “and”; a condition that tells them apart may be missing. Identical values can stand only once.

Experiment: xn = mol fraction of the nth substance listed

CC1COC(=O)O1 (stereo not drawn) + CS(C)=O
308.15 K, 101 kPa
Conditions	viscosity [mPa·s]
x2 = 0.0506	2.025
x2 = 0.1139	1.973
x2 = 0.2014	1.907
x2 = 0.2976	1.842
x2 = 0.382	1.794
x2 = 0.4759	1.746
x2 = 0.5376	1.719
x2 = 0.6343	1.684
x2 = 0.7176	1.659
x2 = 0.7898	1.645
x2 = 0.8643	1.64
x2 = 0.9376	1.639

CC1COC(=O)O1 (stereo not drawn) + CC(C)=O
303.15 K, 101.3 kPa
Conditions	viscosity [mPa·s]
x1 = 0.088	0.3518
x1 = 0.1784	0.4187
x1 = 0.2713	0.5016
x1 = 0.3668	0.6038
x1 = 0.4647	0.7316
x1 = 0.5657	0.8959
x1 = 0.6697	1.104
x1 = 0.7768	1.371
x1 = 0.8864	1.71

C1CCOC1 + CCO
Conditions	viscosity [mPa·s]
298.15 K, 101 kPa, x1 = 0.4	0.6728

CC1COC(=O)O1 (stereo not drawn) + Cc1ccc(C)cc1
viscosity [mPa·s], 101 kPa
Conditions	298.15 K	308.15 K
x1 = 0.0227	0.6155	0.5443
x1 = 0.0397	0.6246	0.5534
x1 = 0.0573	0.6333	0.5634
x1 = 0.0816	–	0.5779
x1 = 0.098	0.6527	0.5884
x1 = 0.209	0.728	0.6727
x1 = 0.3029	0.8062	0.7639
x1 = 0.3993	0.9317	0.8783
x1 = 0.5028	1.116	1.026
x1 = 0.5978	1.316	1.184
x1 = 0.7068	1.584	1.394
x1 = 0.8012	1.856	1.599
x1 = 0.8996	2.149	1.835

c1ccc2ccccc2c1 + CCCCO
viscosity
Conditions	303.15 K	308.15 K	313.15 K	318.15 K	323.15 K
101 kPa, x1 = 0.07958	2.076 mPa·s	1.848 mPa·s	1.633 mPa·s	1.461 mPa·s	1.312 mPa·s
101 kPa, x1 = 0.1174	–	1.796 mPa·s	1.601 mPa·s	1.427 mPa·s	1.28 mPa·s
101.33 kPa, x1 = 0.06489	–	–	1.67 mPa·s	–	1.33 mPa·s
101.33 kPa, x1 = 0.07958	2.076 mPa·s	1.848 mPa·s	1.633 mPa·s and 1.633 mPa·s	1.461 mPa·s	1.312 mPa·s and 1.312 mPa·s
101.33 kPa, x1 = 0.09537	–	–	1.624 mPa·s	–	1.3 mPa·s
101.33 kPa, x1 = 0.1174	–	–	1.601 mPa·s	–	1.28 mPa·s
101.33 kPa, x1 = 0.12	–	1.796 mPa·s	1.601 mPa·s	1.427 mPa·s	1.28 mPa·s
101.33 kPa, x1 = 0.1436	–	–	1.567 mPa·s	–	1.26 mPa·s

CC(C)=O + CC(C)CC(C)(C)C
298.15 K, 101 kPa
Conditions	viscosity [mPa·s]
x1 = 0.0643	0.456
x1 = 0.1001	0.448
x1 = 0.2004	0.428
x1 = 0.2297	0.422
x1 = 0.2934	0.417
x1 = 0.3408	0.404
x1 = 0.3994	0.395
x1 = 0.5006	0.378
x1 = 0.5566	0.367
x1 = 0.5927	0.36
x1 = 0.7032	0.341
x1 = 0.7941	0.327
x1 = 0.8898	0.314

CCCc1ccccc1 + CCC(=O)O
308.15 K, 101.33 kPa
Conditions	viscosity [mPa·s]
x2 = 0.0799	0.7011
x2 = 0.1548	0.7021
x2 = 0.2233	0.7031
x2 = 0.275	0.7037
x2 = 0.411	0.7084
x2 = 0.519	0.7218
x2 = 0.6192	0.7357
x2 = 0.7099	0.753
x2 = 0.7906	0.7717
x2 = 0.8664	0.8012
x2 = 0.9357	0.8334

CC(=O)Oc1ccccc1C(=O)O + CCCCO
viscosity [mPa·s], 101 kPa
Conditions	x1 = 0.0007	x1 = 0.00094	x1 = 0.00118	x1 = 0.00141	x1 = 0.00165	x1 = 0.00189	x1 = 0.00236
293.15 K	2.93	2.931	2.932	2.933	2.934	2.935	2.938
298.15 K	2.57	2.571	2.572	2.573	2.574	2.575	2.576
303.15 K	2.26	2.262	2.262	2.263	2.264	2.265	2.266
308.15 K	2.001	2.002	2.003	2.005	2.005	2.007	2.009
310.15 K	1.9	1.901	1.901	1.902	1.903	1.903	1.905
313.15 K	1.766	1.767	1.767	1.768	1.768	1.769	1.769

CC(=O)N(C)c1ccccc1 + c1ccncc1
298.15 K, 101 kPa
Conditions	viscosity [mPa·s]
x1 = 0.0361	0.967
x1 = 0.06268	1.022
x1 = 0.09446	1.082

COc1ccccc1 + CCCCCCCO
viscosity [mPa·s]
Conditions	303 K	303.15 K	313 K	313.15 K	323 K	323.15 K
100 kPa, x1 = 0.126	3.393	–	2.351	–	1.972	–
100 kPa, x1 = 0.245	2.343	–	1.746	–	1.46	–
100 kPa, x1 = 0.357	1.759	–	1.349	–	1.173	–
100 kPa, x1 = 0.464	1.364	–	1.124	–	0.9642	–
100 kPa, x1 = 0.565	1.172	–	0.9672	–	0.849	–
100 kPa, x1 = 0.66	1.068	–	0.8719	–	0.7334	–
100 kPa, x1 = 0.752	0.9884	–	0.8171	–	0.684	–
100 kPa, x1 = 0.838	0.9459	–	0.7783	–	0.6326	–
100 kPa, x1 = 0.921	0.9418	–	0.7546	–	0.6041	–
101.33 kPa, x1 = 0.1002	–	3.922	–	2.94	–	2.245
101.33 kPa, x1 = 0.1999	–	3.023	–	2.359	–	1.812
101.33 kPa, x1 = 0.3	–	2.457	–	1.932	–	1.554
101.33 kPa, x1 = 0.4003	–	1.996	–	1.611	–	1.292
101.33 kPa, x1 = 0.5	–	1.701	–	1.373	–	1.161
101.33 kPa, x1 = 0.6	–	1.448	–	1.212	–	0.998
101.33 kPa, x1 = 0.7002	–	1.213	–	1.01	–	0.864
101.33 kPa, x1 = 0.8002	–	1.072	–	0.892	–	0.768
101.33 kPa, x1 = 0.9001	–	0.969	–	0.824	–	0.714

COc1ccccc1 + CCCCCCCCCCCCCCCC
viscosity [mPa·s], 101.3 kPa
Conditions	x1 = 0.1745	x1 = 0.2566	x1 = 0.3849	x1 = 0.4725	x1 = 0.5679	x1 = 0.6889	x1 = 0.8311	x1 = 0.944
293.15 K	2.794	2.566	2.193	1.975	1.773	1.51	1.279	1.131
303.15 K	2.261	2.079	1.806	1.64	1.478	1.286	1.084	0.97
313.15 K	1.866	1.73	1.518	1.387	1.258	1.092	0.942	0.845
323.15 K	1.571	1.436	1.296	1.192	1.088	0.964	0.836	0.747
